Key:
[1] = Body weight of ApoE−/− mice on high fat diet during 16 weeks of A-002 (Example 1); type: in vivo; conditions: oral gavage
Experimental: Male ApoE^−/− mice were fed a high fat diet (21% fat, 0.15% cholesterol, 19.5% casein) ad libitum for two weeks in order to acclimate to the diet. Plasma cholesterol levels and body weight were measured in order to obtain baseline levels, and mice were randomized into three groups of 20 mice based on these measurements. After the acclimation period, mice remained on the high fat diet and were administered A-002 (30 mg/kg or 90 mg/kg) or vehicle only (5% acacia) twice a day for 16 weeks by oral gavage.
Plasma cholesterol levels and body weight were measured at 4, 8, 12, and 16 weeks after the start of A-002 administration. Comparisons of measurements between test and control mice at each time period were performed using a two-way analysis of variance test (ANOVA) for repeated measures, followed by post-hoc Bonferroni test for significance.

ApoE−/− mice [2] = assay: Angiotensin II-mediated atherosclerotic plaque formation and aneurysm in ApoE−/− mice (Example 2); type: in vivo
Experimental: A mouse model of accelerated atherosclerosis was utilized to determine the effect of A-002 administration on atherosclerosis and aneurysm formation. ApoE^−/− mice acclimated to the same high fat diet utilized in Example 1 were administered angiotensin II with water, angiotensin with 5% acacia, or saline infusion and water twice daily for four weeks. […] At the end of the test period, plaque coverage was assessed by three independent reviewers, and their assessments were averaged to determine plaque coverage.

ApoE−/− mice [3] = assay: Plasma total cholesterol and HDL levels in ApoE−/− mice, A-002 and/or statin (Example 3); type: in vivo; conditions: alone or plus 0.02 g/kg pravastatin, 12 weeks
Experimental: Body weight, plasma total cholesterol, and plasma HDL levels were measured for six groups of twelve ApoE^−/− mice. The mice were then placed on a high fat diet for twelve weeks to allow for formation of significant fatty atherosclerotic plaques. The high fat diet was a modified version of the Western diet (TD.88137, Harlan Teklad, Madison, Wis.) consisting of casein (195 g/kg), DL-methionine (3 g/kg), sucrose (341.44 g/kg), corn starch (150 g/kg), anhydrous milkfat (210 g/kg), cholesterol (1.5 g/kg), cellulose (50 g/kg), mineral mix AlN-76 (Teklad; 35 g/kg), calcium carbonate (4 g/kg), vitamin mix (Teklad #40060; 10 g/kg), ethyoxyquin (antioxidant, 0.04 g/kg), and either 0.0156 g/kg (“low dose”) A-002 (Group A), 1.56 g/kg (“high dose”) A-002 (Group B), 0.02 g/kg pravastatin (Group C), low dose A-002 plus 0.02 g/kg pravastatin (Group D), high dose A-002 plus 0.02 g/kg pravastatin (Group E), or vehicle only (Group F). Mice were administered diets A-F in a blinded manner, and food was provided ad libitum. The diet was initially prepared based on the assumption that each mouse weighed 22.5 g and ate 4.5 g/day. Based on body weight and food consumption, the diet was modified over the 12 week course of treatment to adjust for a body weight of 26 g and a food intake of 2.5 g/day. The dosages of A-002 were selected to cover a range of 100-fold based on pharmacokinetics in ApoE^−/− mice as well as toxicology and previously observed efficacy in this model.
Plasma total cholesterol and HDL levels were measured. Mean levels of total cholesterol were decreased in mice administered A-002 alone or in combination with statin (Table 3, FIG. 6). […] Mean levels of HDL were increased in mice administered A-002 at either dosage (Table 4). This increase was greater in mice administered high dose A-002 plus statin than in mice administered high dose A-002 or statin alone (Table 4 compare Group E vs. Groups B and C; FIG. 7).

[4] = tested on: human subjects with CVD, specifically stable coronary artery disease; assay: Serum lipid levels in humans, A-002 twice a day for eight weeks (Example 4); type: in vivo
Experimental: (§1) 204 human subjects from the United States with CVD, specifically stable coronary artery disease, were randomized to receive placebo or A-002 via oral administration twice a day over an eight week administration period at dosages of 50 mg, 100 mg, 250 mg, or 500 mg. Levels of various lipids and inflammatory markers were measured at the outset of the trial and at the end of weeks four and/or eight. For data sets with a normal distribution, mean levels of lipids or inflammatory markers were analyzed. For data sets with non-normal distribution, median levels were analyzed. […] In addition, administration of A-002 decreased median levels of CRP (Table 11).
The combined effect of A-002 and statin administration on LDL levels was tested in a population of 332 subjects. This population consisted of the original 204 United States subjects, plus an additional 128 subjects from the Ukraine with stable CAD that received placebo or A-002 based according to the same protocol as the United States subjects. […] Similarly, A-002 decreased LDL levels in subjects receiving a variety of non-statin compounds used in the treatment of CVD, including ezetimibe, AEGR-733/ezetimibe, colesevelam hydrochloride (WelChol®), MK-0524A (Cordaptive®), lisinopril/MC-1 antibody (MC-4232), and Angiotensin Receptor Blocker (ARB)/MC-1 (MC-4262).

IL-6 = assay: Serum IL-6 concentration in humans with metabolic syndrome, A-002 twice a day (Example 4); type: in vivo, human; conditions: metabolic syndrome subpopulation, week 8
Experimental: as §1
Serum TG, CRP, and IL-6 levels were measured at eight weeks in 86 subjects from the ITT population diagnosed with metabolic syndrome.

[5] = high dose A-002 (1.56 g/kg diet)
[6] = low dose A-002 (0.0156 g/kg diet)
[7] = diabetic subpopulation, week 8, A-002 twice a day
[8] = ezetimibe subpopulation (ezetimibe 10 mg), week 8, A-002 twice a day
[9] = metabolic syndrome subpopulation, week 8, A-002 twice a day
[10] = non-statin subpopulation with baseline serum LDL greater than or equal to 72 mg/dl, week 8, A-002 twice a day
[11] = non-statin subpopulation, week 4, A-002 twice a day
[12] = non-statin subpopulation, week 8, A-002 twice a day
[13] = serum, ITT population, week 8, A-002 50-500 mg twice a day
[14] = serum, ITT population, week 8, A-002 twice a day
[15] = statin subpopulation (US + Ukraine), week 4, A-002 twice a day
[16] = statin subpopulation (US + Ukraine), week 8, A-002 twice a day
[17] = statin subpopulation (US), week 8, A-002 twice a day
[18] = statin subpopulation with baseline serum LDL greater than or equal to 72 mg/dl, week 8, A-002 twice a day
[19] = subpopulation with baseline serum LDL greater than or equal to 72 mg/dl, week 8, A-002 twice a day
[20] = summary Table 20, A-002 alone, statin alone or A-002 plus statin

In the case of `CCc1c(C(=O)C(N)=O)c2c(OCC(=O)OC)cccc2n1Cc1ccccc1` [A-002, [[3-(2-Amino-1,2-dioxoethyl)-2-ethyl-1-(phenylmethyl)-1H-indol-4-yl]oxy]acetic acid methyl ester], the “Body weight increase over the 16 week test period” value ([1]; 30 mg/kg A-002 twice a day) is reported as ~150%, the “Body weight increase over the 16 week test period” value ([1]; 90 mg/kg A-002 twice a day) is reported as ~141% and the “Aneurysm rate (%)” value (ApoE−/− mice [2]; angiotensin II + 5% acacia + 30 mg/kg A-002 twice daily, four weeks) is reported as 0% (0/16). The plaque content (ApoE−/− mice [2]; angiotensin II/acacia mice, 30 mg/kg A-002 twice daily, four weeks (FIG. 4)) was “significantly decreased”, the “Mean HDL concentration” value (ApoE−/− mice [3]; [5]) was 17.167 mg/dL and the “Mean total cholesterol concentration” value (ApoE−/− mice [3]; [5]) was 1301.750 mg/dL. For the same molecule, the “Mean HDL concentration” value (ApoE−/− mice [3]; [6]) was 21.000 mg/dL, the “Mean total cholesterol concentration” value (ApoE−/− mice [3]; [6]) was 1355.545 mg/dL and the “reduction (decrease) of mean serum small LDL particle levels” value ([4]; at eight weeks, United States population, text restating Tables 14 and 17) was 3.25%. The “decrease of mean serum LDL levels” value ([4]; at eight weeks, United States subjects with baseline LDL of 72 mg/dl or greater, text restating Tables 15 and 19) was 8.23%, the “decrease of mean serum LDL levels” value ([4]; at week eight, combined United States and Ukraine populations, Tables 16 and 18) was 4.22% and the “decrease of mean serum LDL levels” value ([4]; at week four, combined United States and Ukraine populations, Tables 16 and 18) was 6.93%. For the same molecule, the “% change vs. baseline (mean [LDL])” value [4, 7] was −16.64%, the “Change in mean [LDL] vs. baseline” value [4, 7] was -10.6 mg/dL and the “% change vs. baseline (mean [LDL])” value [4, 8] was −17.8%. For the same molecule, the “Change in mean [LDL] vs. baseline” value [4, 8] was -15.4 mg/dL, the “% change vs. baseline (median [TG])” value [4, 9] was −13.99% and the “Change in median [TG] vs. baseline” value [4, 9] was -24.0 mg/dL. For the same molecule, the “% change vs. baseline (mean [LDL])” value [4, 10] was −8.23%, the “Change in mean [LDL] vs. baseline” value [4, 10] was -9.2 mg/dL and the “% change vs. baseline (mean [LDL])” value [4, 11] was −6.93%. For the same molecule, the “Change in mean [LDL] vs. baseline” value [4, 11] was -8.7 mg/dL, the “% change vs. baseline (mean [LDL])” value [4, 12] was −4.22% and the “% change vs. baseline (mean [small LDL particle])” value [4, 12] was −3.25%. The “Change in mean [LDL] vs. baseline” value [4, 12] was -5.3 mg/dL, the “Change in mean [small LDL particle] vs. baseline” value [4, 12] was -24.0 nmol/L and the “% change vs. baseline (mean [LDL])” value [4, 13] was −10.68%. For the same molecule, the “Change in mean [LDL] vs. baseline” value [4, 13] was -8.2 mg/dL, the “% change vs. baseline (mean [LDL particle])” value [4, 14] was −7.13% and the “% change vs. baseline (mean [TG])” value [4, 14] was −6.67%. For the same molecule, the “% change vs. baseline (mean [small LDL particle])” value [4, 14] was −8.33%, the “% change vs. baseline (mean [total cholesterol])” value [4, 14] was −8.16% and the “Change in mean [LDL particle] vs. baseline” value [4, 14] was -73.6 nmol/L. For the same molecule, the “Change in mean [TG] vs. baseline” value [4, 14] was -10.1 mg/dL, the “Change in mean [small LDL particle] vs. baseline” value [4, 14] was -61.3 nmol/L and the “Change in mean [total cholesterol] vs. baseline” value [4, 14] was -12.8 mg/dL. For the same molecule, the “% change vs. baseline (mean [LDL])” value [4, 15] was −14.04%, the “Change in mean [LDL] vs. baseline” value [4, 15] was -10.8 mg/dL and the “% change vs. baseline (mean [LDL])” value [4, 16] was −12.48%. For the same molecule, the “Change in mean [LDL] vs. baseline” value [4, 16] was -9.6 mg/dL, the “% change vs. baseline (mean [small LDL particle])” value [4, 17] was −9.00% and the “Change in mean [small LDL particle] vs. baseline” value [4, 17] was -66.2 nmol/L. For the same molecule, the “% change vs. baseline (mean [LDL])” value [4, 18] was −16.27%, the “Change in mean [LDL] vs. baseline” value [4, 18] was -15.0 mg/dL and the “LDL levels in subjects receiving non-statin compounds used in the treatment of CVD” value ([4]; subjects on ezetimibe, AEGR-733/ezetimibe, colesevelam hydrochloride, MK-0524A, MC-4232 or MC-4262) was “decreased”. The “% change vs. baseline (mean [LDL])” value [4, 19] was −14.68%, the “Change in mean [LDL] vs. baseline” value [4, 19] was -14.0 mg/dL and the “Observed change following administration: Mean serum [LDL] at week 4” value [4, 20] was −6.93%. The “Observed change following administration: Mean serum [LDL] at week 8” value [4, 20] was −4.22%, the “Observed change following administration: Mean serum [LDL] in ≧72 mg/dl subpopulation at week 8” value [4, 20] was −8.23% and the “Observed change following administration: Mean serum [small LDL particle] at week 8” value [4, 20] was −3.25%. The “Observed change following administration: Mean serum [LDL] at week 8” value ([4]; summary Table 22, A-002 alone, ezetimibe alone or A-002 plus ezetimibe) was −4.22%, the “% change vs. baseline (mean [IL-6])” value (IL-6) was −4.29% and the “Change in mean [IL-6] vs. baseline” value (IL-6) was -0.24 pg/mL.
